Source: patent US7863310B2, “Kinase inhibitors” (Eli Lilly and Company, priority 2004, dated 2011)

Tests used:
[1] = tested on: TNF-α; experiment: Effect on intra-articular LPS induced TNF-α in rat ankles; format: in vivo; conditions: female Lewis rats
Experimental: Intra-articular injection of LPS into rat ankles induces the synthesis of TNF-α, which can be measured in synovial lavage fluid. High levels of TNF-α are detectable within 2 hours. Since the joint is the site where arthritis develops, this model can rapidly determine whether an orally administered compound has an effect on an inflammatory response in the synovium.
Six female Lewis rats (150-200 g) are place in each treatment group. The animals are given vehicle (1% NaCarboxymethylcellulose-0.25% Tween 80) or Example 6 (1 mg/kg, 3 mg/kg, 10 mg/kg, and 30 mg/kg) orally. One hour later, 10 μl LPS (10 μg) is administered intra-articularly into the right ankle of each rat, while the left ankle receives 10 μL of saline. After two hours, each ankle is lavaged with 100 μL of saline. The lavage is collected and stored at −80° C. • Group#1: Vehicle (1% NaCMC-0.25% Tween 80, 1 mL, PO) • Group#2: Example 6 (free base) (1 mg/kg, 1 mL, PO) • Group#3: Example 6 (free base) (3 mg/kg, 1 mL, PO) • Group#4: Example 6 (free base) (10 mg/kg, 1 mL, PO) • Group#5: Example 6 (free base) (30 mg/kg, 1 mL, PO)
TNF-α was measured with a commercially available ELISA kit (R&D, RTA00). […] The TMED50=3 mg/kg for the compound of Example 6 in this assay.

[2] = tested on: Female Lewis rats, collagen induced arthritis; experiment: Rat Collagen Induced Arthritis Efficacy Model; format: in vivo; conditions: 30 mg/kg bid, PO, 14 days
Experimental: Female Lewis rats ((≅190 gm, Charles River Labs) are immunized with Bovine type II collagen (2 mg/ml) emulsified with an equal volume of adjuvant (aluminum hydroxide). […]. The rats are immunized with approximately […] of the emulsion intradermally on the back neat the base of the tail. All animals are re-immunized 7 days later according to the same protocol. The rats begin to develop arthritis (characterized by swell-ling and redness of one or both ankles) from 12 to 14 days after the first immunization. The rats are equally distributed into five treatment groups at the first signs of arthritis and treatment is initiated with each rat dosed bid for 14 days.
Ankle diameter is measured with calipers 5 days a week and recorded. Data is expressed as the area under the curve (AUC) generated from the composite inflammation scores and statistical analysis performed.

Row | Structure (SMILES) | TMED50 ([1]; oral, intra-articular LPS induced TNF-α in synovial lavage fluid) | reduced inflammation (AUC of composite inflammation scores, ankle diameter) [2] | inhibition of TNF-α synthesis, as measured in the synovial lavage fluid ([1]; oral 1, 3, 10, 30 mg/kg, intra-articular LPS 10 μg one hour later, lavage after two hours, ELISA)
1 | CC(C)Cn1c(N)nc2ccc(-c3[nH]c(-c4c(F)cccc4F)nc3-c3ccccc3)cc21 [Example 6, 1-(Isobutyl)-2-amino-6-(2-(2,6-difluorophenyl)-4-phenyl-1H-imidazol-5-yl)-1H-benzimidazole] | 3 mg/kg | 30% | 
2 | CS(=O)(=O)O.C[C@@H](n1c(N)nc2ccc(-c3[nH]c(-c4c(F)cccc4F)nc3-c3ccccc3)cc21)C(C)(C)C [Example 78, 6-[2-(2,6-Difluorophenyl)-5-phenyl-3H-imidazol-4-yl]-1-(1-(R)-methyl-2,2-dimethylpropyl)-1H-benzimidazol-2-ylamine methanesulfonate] |  |  | dose-dependent inhibition
